Data on eight molecules can be found in patent US11739101B2, “Bifunctional degraders of hematopoietic progenitor kinase and therapeutic uses thereof” (Nurix Therapeutics, Inc., priority 2020, dated 2023).

Each structure is given as a SMILES string.

T1 sequence (Q92918 whole entry): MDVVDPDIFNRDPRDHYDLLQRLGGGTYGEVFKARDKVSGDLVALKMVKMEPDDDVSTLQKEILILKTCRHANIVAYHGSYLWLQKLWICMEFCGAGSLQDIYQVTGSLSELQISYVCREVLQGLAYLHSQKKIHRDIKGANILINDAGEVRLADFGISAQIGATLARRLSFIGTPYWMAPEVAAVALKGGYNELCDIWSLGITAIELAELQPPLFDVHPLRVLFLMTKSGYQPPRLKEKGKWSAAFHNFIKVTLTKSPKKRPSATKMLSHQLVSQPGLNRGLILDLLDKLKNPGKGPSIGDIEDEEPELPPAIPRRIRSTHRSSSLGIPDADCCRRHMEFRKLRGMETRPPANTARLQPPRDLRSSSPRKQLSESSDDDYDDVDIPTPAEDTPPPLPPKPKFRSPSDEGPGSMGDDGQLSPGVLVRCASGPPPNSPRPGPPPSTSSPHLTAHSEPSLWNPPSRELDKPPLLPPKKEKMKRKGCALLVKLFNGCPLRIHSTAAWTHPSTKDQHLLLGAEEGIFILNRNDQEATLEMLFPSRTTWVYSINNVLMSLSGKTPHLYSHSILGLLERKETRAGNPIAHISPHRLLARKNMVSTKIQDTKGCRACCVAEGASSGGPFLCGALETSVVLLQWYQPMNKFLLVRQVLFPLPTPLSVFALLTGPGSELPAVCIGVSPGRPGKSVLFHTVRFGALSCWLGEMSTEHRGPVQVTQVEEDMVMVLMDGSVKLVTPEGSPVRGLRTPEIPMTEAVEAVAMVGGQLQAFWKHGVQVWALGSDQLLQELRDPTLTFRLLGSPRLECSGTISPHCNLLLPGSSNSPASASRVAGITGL

This experiment has as its target T1, HPK1 (Homo sapiens, UniProt Q92918).
T1 construct: A HiBiT tag was introduced by CRISPR on the N terminus of HPK1 in Jurkat cells; host or cells: Jurkat (ATCC TIB-152), monoclonal CRISPR HiBiT knock-in line
Put plainly: HPK1 Cellular HiBiT Degradation Assay. The note with it: HiBiT-tagged HPK1 Jurkat cells, 24 hours, 10 uM to 0.1 nM; Dmax = 100 minus lowest % HPK1 remaining vs DMSO vehicle. It is filed as cell-based. Here is the method:
HiBiT HPK1 Jurkat cell lines were used to evaluate the total protein levels of HPK1 in a robust human cellular high throughput format. The level of HPK1 remaining following treatment with HPK1 CTMs is reported as Dmax (maximum degradation) achieved at 24 hours when compared to vehicle treated controls. […] These decreases were not a result of cytotoxicity measured by a parallel viability assessment (CTG). See also Table 1.
A HiBiT tag was introduced by CRISPR on the N terminus of HPK1 in Jurkat cells (ATCC® TIB-152) to allow quantitation of HPK1 protein levels in a monoclonal human cell line. Cells were plated at 1×10^6 cells/mL, 30 uL/well (3×10^4 cells/well) in complete RPMI 1640 (10% heat inactivated FBS, 1% L-glutamine) in 384-well assay plates (Corning, cat. no. 3570). HPK1 chimeric targeting molecules (CTMs) were added in an 11-point dilution series (3.16-fold) with a final assay concentration range of 10 uM to 0.1 nM. The parental Jurkat cell line, with no HiBiT insertion, was included in the assay as a background control. Cells treated with a DMSO vehicle control were used to determine the maximum signal defining 100% HPK1 in the cell. Cells were incubated for 24 hours at 37° C./5% CO2. Following incubation, 30 uL of complete Nano-Glo HiBiT Lytic Detection Reagent (Promega cat. no. N3040) was added. Cells were incubated for 10 minutes at room temperature and luminescence was read on an EnVision plate reader (Perkin Elmer, 0.1 sec per well). Parallel plates were assessed for viability using Cell Titer Glo (Promega) and read on an EnVision plate reader to ensure results were not the effect of cytotoxicity. Percent HPK1 remaining per sample was calculated as follows: […]
% HPK1 remaining values were plotted as a function of compound concentration and curves were fit using the Prism (GraphPad) equation “log(inhibitor) vs response−Variable slope (four parameters)”. Dmax values were calculated by identifying the lowest % remaining and subtracting from 100. Dmax values are provided in Table 1, wherein A>65%, 45%≤B≤65% and C<45%.
A general note: HiBiT is a short tag that completes a luciferase, so light tracks the accessible tagged protein.
As a reminder, the Dmax is the largest share of the target that was removed. Read a low Dmax as shallow degradation. In turn, `Cc1cc(F)c(Nc2nc(-c3ccc4c(c3)N([C@H]3C[C@@H](N5CCCCC5)C3)C(=O)C43CCN(C(=O)CN4CCN(c5ccc6c(c5)C(=O)N(C5CCC(=O)NC5=O)C6=O)CC4)CC3)cc3ncn(C(C)C)c23)cc1C(=O)NC(C)C` (mixture of isomers) [Example 23, 5-[(6-{1′-[2-(4-{2-[(3RS)-2,6-dioxopiperidin-3-yl]-1,3-dioxo-2,3-dihydro-1H-isoindol-5-yl}piperazin-1-yl)acetyl]-2-oxo-1-[(1s,3s)-3-(piperidin-1-yl)cyclobutyl]-1,2-dihydrospiro[indole-3,4′-piperidin]-6-yl}-3-(propan-2-yl)-3H-imidazo[4,5-c]pyridin-4-yl)amino]-4-fluoro-2-methyl-N-(propan-2-yl)benzamide] gave a Dmax of less than 45%. With `Cc1cc(F)c(Nc2nc(-c3ccc4c(c3)N([C@H]3C[C@@H](N5CCCCC5)C3)C(=O)C43CCN(C(=O)CCCCCCCOc4cc(-c5scnc5C)ccc4CNC(=O)[C@@H]4C[C@@H](O)CN4C(=O)[C@@H](NC(=O)C4(F)CC4)C(C)(C)C)CC3)cc3ncn(C(C)C)c23)cc1C(=O)NC(C)C` [Example 13, (2S,4R)—N-(2-((8-(6-(4-((2-fluoro-5-(isopropylcarbamoyl)-4-methylphenyl)amino)-3-isopropyl-3H-imidazo[4,5-c]pyridin-6-yl)-2-oxo-1-((1s,3s)-3-(piperidin-1-yl)cyclobutyl)spiro[indoline-3,4′-piperidin]-1′-yl)-8-oxooctyl)oxy)-4-(4-methylthiazol-5-yl)benzyl)-1-((S)-2-(1-fluorocyclopropane-1-carboxamido)-3,3-dimethylbutanoyl)-4-hydroxypyrrolidine-2-carboxamide] the figure was less than 45%; with `Cc1cc(F)c(Nc2nc(-c3ccc4c(c3)N([C@H]3C[C@@H](N5CCCCC5)C3)C(=O)C43CCN(C(=O)CC4CCCN(CC5CCN(c6cccc7c6C(=O)N(C6CCC(=O)NC6=O)C7=O)C5)C4)CC3)cc3ncn(C(C)C)c23)cc1C(=O)NC(C)C` (stereo partly drawn) [Example 31, 5-{[6-(1′-{2-[(3S)-1-{[1-{2-[2,6-dioxopiperidin-3-yl]-1,3-dioxo-2,3-dihydro-1H-isoindol-4-yl}pyrrolidin-3-yl]methyl}piperidin-3-yl]acetyl}-2-oxo-1-[(1s,3s)-3-(piperidin-1-yl)cyclobutyl]-1,2-dihydrospiro[indole-3,4′-piperidin]-6-yl)-3-(propan-2-yl)-3H-imidazo[4,5-c]pyridin-4-yl]amino}-4-fluoro-2-methyl-N-(propan-2-yl)benzamide], greater than 65%; with `Cc1cc(F)c(Nc2nc(-c3ccc4c(c3)N([C@H]3C[C@@H](N5CCCCC5)C3)C(=O)C43CCN(C(=O)C[C@@H]4CCN(C(=O)[C@H]5CC[C@H](Nc6cccc7c6C(=O)N(C6CCC(=O)NC6=O)C7=O)CC5)C4)CC3)cc3ncn(C(C)C)c23)cc1C(=O)NC(C)C` (stereo partly drawn) [Example 56, 4-fluoro-2-methyl-5-{[6-(2-oxo-1′-{2-[(3S)-1-[(1R,4R)-4-({2-[2,6-dioxopiperidin-3-yl]-1,3-dioxo-2,3-dihydro-1H-isoindol-4-yl}amino)cyclohexanecarbonyl]pyrrolidin-3-yl]acetyl}-1-[(1s,3s)-3-(piperidin-1-yl)cyclobutyl]-1,2-dihydrospiro[indole-3,4′-piperidin]-6-yl)-3-(propan-2-yl)-3H-imidazo[4,5-c]pyridin-4-yl]amino}-N-(propan-2-yl)benzamide], less than 45%. On to `Cc1cc(F)c(Nc2nc(-c3ccc4c(c3)N([C@H]3C[C@@H](N5CCCCC5)C3)C(=O)C43CCN(C(=O)C4CCN(CC5CCN(c6cccc7c6C(=O)N(C6CCC(=O)NC6=O)C7=O)CC5)C4)CC3)cc3ncn(C(C)C)c23)cc1C(=O)NC(C)C` (some centres unmarked) [Example 38, 5-[(6-{1′-[1-[(1-{2-[2,6-dioxopiperidin-3-yl]-1,3-dioxo-2,3-dihydro-1H-isoindol-4-yl}piperidin-4-yl)methyl]pyrrolidine-3-carbonyl]-2-oxo-1-[(1s,3s)-3-(piperidin-1-yl)cyclobutyl]-1,2-dihydrospiro[indole-3,4′-piperidin]-6-yl}-3-(propan-2-yl)-3H-imidazo[4,5-c]pyridin-4-yl)amino]-4-fluoro-2-methyl-N-(propan-2-yl)benzamide], for which the Dmax was greater than 65%. The molecule `CC(=O)N1CCC2(CC1)C(=O)N([C@H]1C[C@@H](N3CCC[C@@H](C(=O)NCCCCCCCCCOc4cc(-c5scnc5C)ccc4CNC(=O)[C@@H]4C[C@@H](O)CN4C(=O)[C@@H](NC(=O)C4(F)CC4)C(C)(C)C)C3)C1)c1cc(-c3cc4ncn(C(C)C)c4c(Nc4cc(C(=O)NC(C)C)c(C)cc4F)n3)ccc12` [Example 17, (R)-1-((1s,3s)-3-(1′-acetyl-6-(4-((2-fluoro-5-(isopropylcarbamoyl)-4-methylphenyl)amino)-3-isopropyl-3H-imidazo[4,5-c]pyridin-6-yl)-2-oxospiro[indoline-3,4′-piperidin]-1-yl)cyclobutyl)-N-(9-(2-(((2S,4R)-1-((S)-2-(1-fluorocyclopropane-1-carboxamido)-3,3-dimethylbutanoyl)-4-hydroxypyrrolidine-2-carboxamido)methyl)-5-(4-methylthiazol-5-yl)phenoxy)nonyl)piperidine-3-carboxamide] yielded a Dmax of less than 45%. With `Cc1cc(F)c(Nc2nc(-c3ccc4c(c3)N([C@H]3C[C@@H](N5CCCCC5)C3)C(=O)C43CCN(C(=O)C4CCN(CC5CCN(c6ccc7c(c6)C(=O)N(C6CCC(=O)NC6=O)C7=O)CC5)CC4)CC3)cc3ncn(C(C)C)c23)cc1C(=O)NC(C)C` (some centres unmarked) [Example 45, 5-{[6-(1′-{1-[(1-{2-[2,6-dioxopiperidin-3-yl]-1,3-dioxo-2,3-dihydro-1H-isoindol-5-yl}piperidin-4-yl)methyl]piperidine-4-carbonyl}-2-oxo-1-[(1s,3s)-3-(piperidin-1-yl)cyclobutyl]-1,2-dihydrospiro[indole-3,4′-piperidin]-6-yl)-3-(propan-2-yl)-3H-imidazo[4,5-c]pyridin-4-yl]amino}-4-fluoro-2-methyl-N-(propan-2-yl)benzamide] the figure was greater than 65%; with `Cc1cc(F)c(Nc2nc(-c3ccc4c(c3)N([C@H]3C[C@@H](N5CCCCC5)C3)C(=O)C43CCN(C(=O)[C@H]4CC[C@@H](C(=O)N5CCC(Nc6cccc7c6C(=O)N(C6CCC(=O)NC6=O)C7=O)CC5)CC4)CC3)cc3ncn(C(C)C)c23)cc1C(=O)NC(C)C` (stereo partly drawn) [Example 50, 4-fluoro-2-methyl-5-[(6-{2-oxo-1-[(1s,3s)-3-(piperidin-1-yl)cyclobutyl]-1′-[(1S,4s)-4-[4-({2-[2,6-dioxopiperidin-3-yl]-1,3-dioxo-2,3-dihydro-1H-isoindol-4-yl}amino)piperidine-1-carbonyl]cyclohexanecarbonyl]-1,2-dihydrospiro[indole-3,4′-piperidin]-6-yl}-3-(propan-2-yl)-3H-imidazo[4,5-c]pyridin-4-yl)amino]-N-(propan-2-yl)benzamide], 45 to 65%.
